In ChEMBL document CHEMBL4732135, “Structural and mechanistic insights into the inhibition of amyloid-β aggregation by Aβ fragment derived synthetic peptides” (Eur J Med Chem, 2021):
Square brackets hold non-standard residues; d marks the D form. Peptide text beside a SMILES is read from it. ξ: configuration not given here. Phe(4-NO2) = N[C@@H](Cc1ccc([N+](=O)[O-])cc1)C(=O)O; Phe(4-CF3) = N[C@@H](Cc1ccc(C(F)(F)F)cc1)C(=O)O; Phe(4-tBu) = CC(C)(C)c1ccc(C[C@H](N)C(=O)O)cc1; Bip = N[C@@H](Cc1ccc(-c2ccccc2)cc1)C(=O)O; Phe(4-Cl) = N[C@@H](Cc1ccc(Cl)cc1)C(=O)O; Oic(3aξ,7aξ) = O=C(O)[C@@H]1CC2CCCCC2N1; Phe(4-NH2) = Nc1ccc(C[C@H](N)C(=O)O)cc1; Phe(4-Me) = Cc1ccc(C[C@H](N)C(=O)O)cc1; Gly(cPent) = N[C@H](C(=O)O)C1CCCC1; Ala(cPr) = N[C@@H](CC1CC1)C(=O)O; 4Pal = N[C@@H](Cc1ccncc1)C(=O)O; NMeL = CN[C@@H](CC(C)C)C(=O)O; Tle = CC(C)(C)[C@H](N)C(=O)O; NMeNva = CCC[C@H](NC)C(=O)O; β3hP = O=C(O)C[C@@H]1CCCN1; Ac5c = NC1(C(=O)O)CCCC1; Abu = CC[C@H](N)C(=O)O; βAla = NCCC(=O)O

Columns and labels:
PC-12 [1] = assay: Neuroprotective activity against amyloid beta 42-induced toxicity in rat PC-12 cells assessed as cell viability at 10 uM measured after 6 hrs by MTT assay (reference value: 74.05%); format: functional; details: read-out: Activity
PC-12 [2] = assay: Neuroprotective activity against amyloid beta 42-induced toxicity in rat PC-12 cells assessed as cell viability at 4 uM measured after 6 hrs by MTT assay (reference value: 74.05%); format: functional; details: read-out: Activity
PC-12 [3] = assay: Neuroprotective activity against amyloid beta 42-induced toxicity in rat PC-12 cells assessed as cell viability at 2 uM measured after 6 hrs by MTT assay (reference value: 74.05%); format: functional; details: read-out: Activity
[4] = target: Amyloid-beta precursor protein (Homo sapiens) (UniProt P05067); assay: Inhibition of amyloid beta (1 to 42) (unknown origin) assessed as reduction in peptide aggregation at 10 uM measured after 24 hrs by thioflavin-T fluorescence assay relative to control
Amyloid-beta precursor protein (Homo sapiens), sequence (P05067 whole entry): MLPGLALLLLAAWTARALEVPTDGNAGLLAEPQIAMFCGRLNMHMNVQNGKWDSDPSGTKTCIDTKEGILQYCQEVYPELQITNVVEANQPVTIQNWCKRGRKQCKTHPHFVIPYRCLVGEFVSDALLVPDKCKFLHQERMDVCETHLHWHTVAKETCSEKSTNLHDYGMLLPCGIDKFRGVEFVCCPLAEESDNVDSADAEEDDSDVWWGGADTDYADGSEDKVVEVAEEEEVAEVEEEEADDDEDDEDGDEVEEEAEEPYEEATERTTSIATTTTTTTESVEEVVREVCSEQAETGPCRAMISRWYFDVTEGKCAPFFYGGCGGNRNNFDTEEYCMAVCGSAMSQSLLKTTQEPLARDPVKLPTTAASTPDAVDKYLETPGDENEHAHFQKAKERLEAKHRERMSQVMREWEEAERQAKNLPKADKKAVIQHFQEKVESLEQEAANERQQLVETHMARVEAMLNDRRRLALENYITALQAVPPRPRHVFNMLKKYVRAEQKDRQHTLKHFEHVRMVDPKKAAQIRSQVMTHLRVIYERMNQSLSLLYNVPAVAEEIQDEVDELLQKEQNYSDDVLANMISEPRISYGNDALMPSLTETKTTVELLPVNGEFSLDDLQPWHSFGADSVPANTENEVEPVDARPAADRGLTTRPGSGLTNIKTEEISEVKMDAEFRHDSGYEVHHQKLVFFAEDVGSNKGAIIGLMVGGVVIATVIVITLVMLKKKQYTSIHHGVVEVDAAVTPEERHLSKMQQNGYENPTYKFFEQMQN

[5] = target: Amyloid-beta precursor protein (Homo sapiens) (UniProt P05067); assay: Inhibition of amyloid beta (1 to 42) (unknown origin) assessed as reduction in peptide aggregation at 4 uM measured after 24 hrs by thioflavin-T fluorescence assay relative to control
[6] = target: Amyloid-beta precursor protein (Homo sapiens) (UniProt P05067); assay: Inhibition of amyloid beta (1 to 42) (unknown origin) assessed as reduction in peptide aggregation at 2 uM measured after 24 hrs by thioflavin-T fluorescence assay relative to control

Row | Structure (SMILES) | viability at 10 µM (PC-12 [1]) [%] | viability at 4 µM (PC-12 [2]) [%] | viability at 2 µM (PC-12 [3]) [%] | inhibition [4] [%] | inhibition [5] [%] | inhibition [6] [%]
1 | CC[C@H](C)[C@H](NC(=O)[C@@H](NC(=O)[C@@H](N)C(C)C)C(C)C)C(=O)N[C@@H](CC(N)=O)C(=O)O (H-VVIN-OH) | 69.2 | 67.4 | 93.6 | 71.5 | 59.9 | 38.6
2 | CC[C@H](C)[C@H](NC(=O)[C@@H](NC(=O)[C@@H](N)C(C)C)C(C)C)C(=O)N[C@@H](CCC(N)=O)C(=O)O (H-VVIQ-OH) | 74.6 | 75.2 | 76.9 | 23.4 | 26.5 | 24.2
3 | CC[C@H](C)[C@H](NC(=O)[C@@H](NC(=O)[C@@H](N)Cc1ccc(C)cc1)C(C)C)C(=O)N[C@@H](C)C(=O)O (H-[Phe(4-Me)]VIA-OH) | 72.6 | 68.4 | 71.7 | 26.8 | 3.2 | 0
4 | CC[C@H](C)[C@H](NC(=O)[C@@H](NC(=O)C[C@H](N)c1ccccc1)C(C)C)C(=O)N[C@@H](C)C(=O)O | 58.8 | 66.3 | 69.1 | 67.3 | 58.2 | 50.1
5 | CC(C)C[C@@H](C(=O)N[C@@H](C)C(=O)O)N(C)C(=O)[C@@H](NC(=O)[C@@H](N)C(C)C)C(C)C (H-VV[NMeL]A-OH) | 84.8 | 87.2 | 96.3 | 61 | 44.1 | 31.6
6 | CC(C)[C@H](N)C(=O)N[C@H](C(=O)N[C@@H](CC1CC1)C(=O)N[C@@H](C)C(=O)O)C(C)C (H-VV[Ala(cPr)]A-OH) | 65.9 | 77 | 68.4 | 0 | 0 | 0
7 | CC[C@H](C)[C@H](NC(=O)[C@@H](NC(=O)[C@@H](N)Cc1ccc(-c2ccccc2)cc1)C(C)C)C(=O)N[C@@H](C)C(=O)O (H-[Bip]VIA-OH) | 83.2 | 80.6 | 86.5 | 12.9 | 34.7 | 26.4
8 | CC(C)[C@H](N)C(=O)N[C@H](C(=O)N[C@H](C(=O)N[C@@H](C)C(=O)O)C1CCCC1)C(C)C (H-VV[Gly(cPent)]A-OH) | 84.2 | 91.9 | 85.6 | 47.8 | 40.3 | 17.1
9 | CC(C)[C@H](N)C(=O)N[C@H](C(=O)N[C@H](C(=O)N[C@@H](C)C(=O)O)C(C)(C)C)C(C)C (H-VV[Tle]A-OH) | 82.7 | 69.2 | 78.1 | 0 | 0 | 0
10 | CC[C@H](C)[C@H](NC(=O)[C@@H](NC(=O)[C@@H](N)Cc1ccc(N)cc1)C(C)C)C(=O)N[C@@H](C)C(=O)O (H-[Phe(4-NH2)]VIA-OH) | 82.1 | 70.3 | 77.8 | 77.4 | 68.4 | 59.2
11 | CC[C@H](C)[C@H](NC(=O)[C@@H]1CC2CCCCC2N1C(=O)[C@@H]1CC2CCCCC2N1)C(=O)N[C@@H](C)C(=O)O (some centres undefined) (H-[Oic(3aξ,7aξ)][Oic(3aξ,7aξ)]IA-OH) | 88.5 | 92.9 | 93.2 | 91.5 | 99.1 | 100
12 | CC[C@H](C)[C@H](NC(=O)C[C@@H]1CCCN1C(=O)[C@@H](N)C(C)C)C(=O)N[C@@H](C)C(=O)O (H-V[β3hP]IA-OH) | 66.4 | 80.4 | 91.1 | 100 | 99.2 | 96.1
13 | CC(C)[C@H](N)C(=O)N[C@H](C(=O)N1C2CCCCC2C[C@H]1C(=O)N[C@@H](C)C(=O)O)C(C)C (some centres undefined) (H-VV[Oic(3aξ,7aξ)]A-OH) | 86.1 | 78.4 | 60 | 46.4 | 19.3 | 37.2
14 | CC[C@H](C)[C@H](NC(=O)CNC(=O)CN)C(=O)N[C@@H](C)C(=O)O (H-GGIA-OH) | 66.8 | 72.8 | 100 | 98.3 | 95.2 | 93.6
15 | CC[C@H](C)[C@H](NC(=O)[C@@H](NC(=O)[C@@H](N)Cc1ccncc1)C(C)C)C(=O)N[C@@H](C)C(=O)O (H-[4Pal]VIA-OH) | 96.8 | 78.2 | 82 | 46 | 44.2 | 42.7
16 | CC[C@H](C)[C@H](NC(=O)C1(NC(=O)[C@@H](N)C(C)C)CCCC1)C(=O)N[C@@H](C)C(=O)O (H-V[Ac5c]IA-OH) | 100 | 97.1 | 89 | 100 | 100 | 100
17 | CC[C@H](C)[C@H](NC(=O)[C@@H](NC(=O)[C@@H](N)Cc1ccc([N+](=O)[O-])cc1)C(C)C)C(=O)N[C@@H](C)C(=O)O (H-[Phe(4-NO2)]VIA-OH) | 73.7 | 100 | 94.1 | 50.4 | 78.4 | 94.8
18 | CC[C@H](NC(=O)[C@@H](NC(=O)[C@@H](N)C(C)C)C(C)C)C(=O)N[C@@H](C)C(=O)O (H-VV[Abu]A-OH) | 89.2 | 94.9 | 89.1 | 4.4 | 0 | 0
19 | CC[C@H](C)[C@H](NC(=O)[C@@H](NC(=O)[C@@H](N)C(C)C)C(C)(C)C)C(=O)N[C@@H](C)C(=O)O (H-V[Tle]IA-OH) | 100 | 91.3 | 89.3 | 100 | 100 | 100
20 | CCC[C@@H](C(=O)N[C@@H](C)C(=O)O)N(C)C(=O)[C@@H](NC(=O)[C@@H](N)C(C)C)C(C)C (H-VV[NMeNva]A-OH) | 82.1 | 83.7 | 87.3 | 40.8 | 34.9 | 22.2
21 | CC[C@H](NC(=O)[C@@H](N)C(C)C)C(=O)N[C@H](C(=O)N[C@@H](C)C(=O)O)[C@@H](C)CC (H-V[Abu]IA-OH) | 82.7 | 70.8 | 90.1 | 24.1 | 5.3 | 0
22 | CC[C@H](C)[C@H](NC(=O)C[C@@H]1CCCN1C(=O)C[C@@H]1CCCN1)C(=O)N[C@@H](C)C(=O)O (H-[β3hP][β3hP]IA-OH) | 100 | 75.5 | 97.9 | 100 | 89.7 | 78.9
23 | CC(C)[C@H](N)C(=O)N[C@H](C(=O)NC[C@@H]1CCCN1[C@@H](C)C(=O)O)C(C)C | 58.8 | 64.7 | 72 | 11.9 | 0 | 0
24 | CC[C@H](NC(=O)[C@@H](NC(=O)[C@@H](NC(=O)[C@@H](N)C(C)C)C(C)C)[C@@H](C)CC)C(=O)O (H-VVI[Abu]-OH) | 65.6 | 73.4 | 77.9 | 32.5 | 2 | 2.8
25 | CC[C@H](C)[C@H](NC(=O)[C@@H](NC(=O)[C@@H](N)Cc1ccc(Cl)cc1)C(C)C)C(=O)N[C@@H](C)C(=O)O (H-[Phe(4-Cl)]VIA-OH) | 72.3 | 73.9 | 80.1 | 75.8 | 57.4 | 46.4
26 | CC[C@H](C)[C@H](NC(=O)[C@@H](NC(=O)[C@@H](N)Cc1ccc(C(F)(F)F)cc1)C(C)C)C(=O)N[C@@H](C)C(=O)O (H-[Phe(4-CF3)]VIA-OH) | 86.2 | 88.7 | 92.1 | 4.5 | 20.4 | 41.8
27 | CC[C@H](C)[C@H](NC(=O)[C@@H](NC(=O)[C@@H](N)C(C)C)C(C)C)C(=O)NCCC(=O)O (H-VVI[βAla]-OH) | 87.3 | 93.1 | 97.8 | 13 | 0 | 0
28 | CC[C@H](C)[C@H](NC(=O)[C@@H](NC(=O)[C@@H](N)C(C)C)C(C)C)C(=O)N[C@@H](CCC(=O)O)C(=O)O (H-VVIE-OH) | 84.9 | 76.3 | 68.9 | 65.1 | 39.3 | 38.8
29 | CC[C@H](C)[C@H](NC(=O)[C@@H](NC(=O)[C@@H](N)Cc1ccc(C(C)(C)C)cc1)C(C)C)C(=O)N[C@@H](C)C(=O)O (H-[Phe(4-tBu)]VIA-OH) | 80.2 | 87.3 | 93.6 | 42 | 57.4 | 78.6
